Patent publication US20230073777A1, “CYCLIC-AMP RESPONSE ELEMENT BINDING PROTEIN (CBP) AND/OR ADENOVIRAL E1A BINDING PROTEIN OF 300 KDA (P300) DEGRADATION COMPOUNDS AND METHODS OF USE” (CULLGEN (SHANGHAI), INC., priority 2019, published 2023)
Where two headings read alike, the source gives them in different places.

How the values were obtained:
LNCaP cells = experiment: LNCaP cell viability assay (CellTiter-Glo); assay type: cell-based; settings: Homo sapiens, 72 h, LNCaP prostate cancer cell viability inhibition, 3 days
How it was run: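 LNCaP cells, 5000/well, exposed to compounds in 12-point 3-fold serial dilution (top 10 μM) for 3 days. Viability by CellTiter-Glo luminescence, normalized to untreated cells; IC50 by least-squares nonlinear regression.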

P300 = P300 (Homo sapiens, UniProt Q09472); experiment: Immunoblotting of P300 protein levels in LNCaP or 22RV1 cells; assay type: cell-based; design: LNCaP or 22RV1 cells that express CBP/P300 proteins were treated with GNE-781 or the bivalent compounds; endogenous in cells; host or cells: LNCaP (clone FGC) or 22RV1 cells; settings: read-out: Degradation (10 nM)
P300, sequence (Q09472 whole entry): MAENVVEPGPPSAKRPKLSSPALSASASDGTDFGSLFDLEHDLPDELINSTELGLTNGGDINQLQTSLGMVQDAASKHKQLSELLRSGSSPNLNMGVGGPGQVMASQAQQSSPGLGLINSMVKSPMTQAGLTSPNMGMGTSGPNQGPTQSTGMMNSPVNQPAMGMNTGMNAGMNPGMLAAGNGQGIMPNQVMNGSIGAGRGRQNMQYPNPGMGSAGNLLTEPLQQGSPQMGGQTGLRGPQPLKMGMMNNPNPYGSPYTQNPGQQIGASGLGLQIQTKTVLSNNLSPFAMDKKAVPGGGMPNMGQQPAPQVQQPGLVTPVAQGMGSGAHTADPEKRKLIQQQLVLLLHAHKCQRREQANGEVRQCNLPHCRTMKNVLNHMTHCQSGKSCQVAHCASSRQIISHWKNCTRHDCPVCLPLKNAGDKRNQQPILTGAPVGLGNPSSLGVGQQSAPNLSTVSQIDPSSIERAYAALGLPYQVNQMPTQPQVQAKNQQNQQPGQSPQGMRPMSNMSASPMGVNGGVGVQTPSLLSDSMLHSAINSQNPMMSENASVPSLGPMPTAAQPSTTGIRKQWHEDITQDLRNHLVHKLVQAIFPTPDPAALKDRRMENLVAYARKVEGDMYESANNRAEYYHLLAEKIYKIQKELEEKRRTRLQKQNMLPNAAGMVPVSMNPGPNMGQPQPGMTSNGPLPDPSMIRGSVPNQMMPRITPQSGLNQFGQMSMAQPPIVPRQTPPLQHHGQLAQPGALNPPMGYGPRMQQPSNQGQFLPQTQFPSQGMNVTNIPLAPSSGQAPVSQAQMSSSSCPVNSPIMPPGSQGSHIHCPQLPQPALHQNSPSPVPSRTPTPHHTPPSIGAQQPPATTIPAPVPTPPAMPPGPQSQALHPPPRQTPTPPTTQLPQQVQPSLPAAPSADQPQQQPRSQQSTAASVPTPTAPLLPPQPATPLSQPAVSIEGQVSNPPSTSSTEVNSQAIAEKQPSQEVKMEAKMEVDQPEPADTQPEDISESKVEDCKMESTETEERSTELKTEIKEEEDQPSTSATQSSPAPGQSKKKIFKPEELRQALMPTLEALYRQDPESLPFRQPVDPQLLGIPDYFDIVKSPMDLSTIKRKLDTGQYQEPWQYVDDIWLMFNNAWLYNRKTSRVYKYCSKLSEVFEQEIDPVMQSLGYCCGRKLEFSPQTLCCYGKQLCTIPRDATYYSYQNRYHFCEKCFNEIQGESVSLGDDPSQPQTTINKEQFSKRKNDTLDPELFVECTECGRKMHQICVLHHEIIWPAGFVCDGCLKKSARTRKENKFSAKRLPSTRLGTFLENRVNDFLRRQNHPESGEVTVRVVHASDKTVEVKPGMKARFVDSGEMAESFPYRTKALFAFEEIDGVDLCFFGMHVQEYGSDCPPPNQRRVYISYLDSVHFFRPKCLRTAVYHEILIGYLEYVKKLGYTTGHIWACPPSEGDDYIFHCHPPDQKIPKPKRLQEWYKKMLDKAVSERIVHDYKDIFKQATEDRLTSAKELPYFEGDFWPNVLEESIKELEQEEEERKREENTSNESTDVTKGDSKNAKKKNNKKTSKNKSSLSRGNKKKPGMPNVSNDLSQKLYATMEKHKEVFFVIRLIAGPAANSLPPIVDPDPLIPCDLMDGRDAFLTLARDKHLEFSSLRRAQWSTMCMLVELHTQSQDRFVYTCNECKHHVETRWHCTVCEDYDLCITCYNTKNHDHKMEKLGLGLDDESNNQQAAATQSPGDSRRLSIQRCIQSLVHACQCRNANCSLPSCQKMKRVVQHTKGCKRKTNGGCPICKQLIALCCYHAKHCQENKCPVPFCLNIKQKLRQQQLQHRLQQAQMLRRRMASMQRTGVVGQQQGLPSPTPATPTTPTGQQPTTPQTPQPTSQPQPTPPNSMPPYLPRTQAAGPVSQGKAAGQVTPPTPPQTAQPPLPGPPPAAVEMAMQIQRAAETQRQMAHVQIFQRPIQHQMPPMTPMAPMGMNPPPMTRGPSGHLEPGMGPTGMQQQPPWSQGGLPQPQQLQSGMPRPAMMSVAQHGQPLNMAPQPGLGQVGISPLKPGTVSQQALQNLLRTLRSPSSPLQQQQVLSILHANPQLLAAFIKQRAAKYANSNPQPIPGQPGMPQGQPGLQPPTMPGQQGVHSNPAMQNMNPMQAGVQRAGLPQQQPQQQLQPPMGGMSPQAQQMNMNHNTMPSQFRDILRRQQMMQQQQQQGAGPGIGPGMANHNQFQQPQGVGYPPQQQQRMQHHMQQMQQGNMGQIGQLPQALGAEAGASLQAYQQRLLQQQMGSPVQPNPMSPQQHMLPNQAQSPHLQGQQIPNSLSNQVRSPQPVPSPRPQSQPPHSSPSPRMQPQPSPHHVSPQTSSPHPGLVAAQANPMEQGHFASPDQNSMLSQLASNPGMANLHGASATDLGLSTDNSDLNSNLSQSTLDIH
How it was run: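 LNCaP or 22RV1 cells treated with compounds for indicated hours, DMSO as negative control. RIPA lysates resolved by SDS-PAGE and immunoblotted for P300 or CBP, tubulin or vinculin as loading control; chemiluminescent bands quantitated.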

[1] = percentage of inhibition of p300 at 10 nM (Table 3)
[2] = percentage of inhibition of p300 at 10 nM (Table 2)

| Structure (SMILES) | IC50 (LNCaP cells; CellTiter-Glo (Table 3)) | inhibition at 0.01 µM (P300; [1]) | IC50 (LNCaP cells; CellTiter-Glo (Table 2)) | inhibition at 0.01 µM (P300; [2]) | inhibition at 0.01 µM (P300) |
| --- | --- | --- | --- | --- | --- |
| CNC(=O)N1CCc2c(c(N3CCCc4cc(-c5cnn(CC(=O)NCCCCCCC(=O)N[C@H](C(=O)N6C[C@H](O)C[C@H]6C(=O)NCc6ccc(-c7scnc7C)cc6)C(C)(C)C)c5)c(C(F)F)cc43)nn2C2CCOCC2)C1 [P-080, 3-(7-(Difluoromethyl)-6-(1-(2-((7-(((S)-1-((2S,4R)-4-hydroxy-2-((4-(4-methylthiazol-5-yl)benzyl)carbamoyl)pyrrolidin-1-yl)-3,3-dimethyl-1-oxobutan-2-yl)amino)-7-oxoheptyl)amino)-2-oxoethyl)-1H-pyrazol-4-yl)-3,4-dihydroquinolin-1(2H)-yl)-N-methyl-1-(tetrahydro-2H-pyran-4-yl)-1,4,6,7-tetrahydro-5H-pyrazolo[4,3-c]pyridine-5-carboxamide] | > 10000 nM | < 20% | – | – | – |
| CNC(=O)N1CCc2c(c(N3CCCc4cc(-c5cnn(C)c5)c(C(F)F)cc43)nn2C2CCN(C(=O)CCCCNc3cccc4c3C(=O)N(C3CCC(=O)NC3=O)C4=O)CC2)C1 (stereo not shown) [P-033, 3-(7-(difluoromethyl)-6-(1-methyl-1H-pyrazol-4-yl)-3,4-dihydroquinolin-1(2H)-yl)-1-(1-(5-((2-(2,6-dioxopiperidin-3-yl)-1,3-dioxoisoindolin-4-yl)amino)pentanoyl)piperidin-4-yl)-N-methyl-1,4,6,7-tetrahydro-5H-pyrazolo[4,3-c]pyridine-5-carboxamide] | – | – | 4.8 nM | > 80% | – |
| CNC(=O)N1CCc2c(c(N3CCCc4cc(-c5cnn(C)c5)c(C(F)F)cc43)nn2C2CCN(C(=O)CCCCCCc3cccc4c3CN(C3CCC(=O)NC3=O)C4=O)CC2)C1 (stereo not shown) [P-086, 3-(7-(Difluoromethyl)-6-(1-methyl-1H-pyrazol-4-yl)-3,4-dihydroquinolin-1(2H)-yl)-1-(1-(7-(2-(2,6-dioxopiperidin-3-yl)-1-oxoisoindolin-4-yl)heptanoyl)piperidin-4-yl)-N-methyl-1,4,6,7-tetrahydro-5H-pyrazolo[4,3-c]pyridine-5-carboxamide] | 21.1 nM | 50 to 80% | – | – | – |
| CNC(=O)N1CCc2c(c(N3CCCc4cc(-c5cnn(CC(=O)NCCOCCOCCOCCOCCOCCNc6cccc7c6C(=O)N(C6CCC(=O)NC6=O)C7=O)c5)c(C(F)F)cc43)nn2C2CCOCC2)C1 (stereo not shown) [P-025, 3-(7-(Difluoromethyl)-6-(1-(20-((2-(2,6-dioxopiperidin-3-yl)-1,3-dioxoisoindolin-4-yl)amino)-2-oxo-6,9,12,15,18-pentaoxa-3-azaicosyl)-1H-pyrazol-4-yl)-3,4-dihydroquinolin-1(2H)-yl)-N-methyl-1-(tetrahydro-2H-pyran-4-yl)-1,4,6,7-tetrahydro-5H-pyrazolo[4,3-c]pyridine-5-carboxamide] | – | – | 1250 nM | < 20% | – |
| CNC(=O)N1CCc2c(c(N3CCCc4cc(-c5cnn(C)c5)c(C(F)F)cc43)nn2C2CCN(C(=O)CCCCC#Cc3cccc4c3CN(C3CCC(=O)NC3=O)C4=O)CC2)C1 (stereo not shown) [P-093, 3-(7-(difluoromethyl)-6-(1-methyl-1H-pyrazol-4-yl)-3,4-dihydroquinolin-1(2H)-yl)-1-(1-(7-(2-(2,6-dioxopiperidin-3-yl)-1-oxoisoindolin-4-yl)hept-6-ynoyl)piperidin-4-yl)-N-methyl-1,4,6,7-tetrahydro-5H-pyrazolo[4,3-c]pyridine-5-carboxamide] | 25.2 nM | > 80% | – | – | – |
| CNC(=O)N1CCc2c(c(N3CCCc4cc(-c5cnn(C)c5)c(C(F)F)cc43)nn2C2CCN(C(=O)CCOCCOCCOCCNc3cccc4c3C(=O)N(C3CCC(=O)NC3=O)C4=O)CC2)C1 (stereo not shown) [P-053, 3-(7-(Difluoromethyl)-6-(1-methyl-1H-pyrazol-4-yl)-3,4-dihydroquinolin-1(2H)-yl)-1-(1-(3-(2-(2-(2-((2-(2,6-dioxopiperidin-3-yl)-1,3-dioxoisoindolin-4-yl)amino)ethoxy)ethoxy)ethoxy)propanoyl)piperidin-4-yl)-N-methyl-1,4,6,7-tetrahydro-5H-pyrazolo[4,3-c]pyridine-5-carboxamide] | 76.5 nM | 20 to 50% | – | – | – |
| CC(=O)N1CCc2c(c(N3CCCc4cc(-c5cnn(C)c5)c(C(F)F)cc43)nn2C2CCN(CCCCCCOc3cccc4c3C(=O)N(C3CCC(=O)NC3=O)C4=O)CC2)C1 (stereo not shown) [P-113, 4-((6-(4-(5-acetyl-3-(7-(difluoromethyl)-6-(1-methyl-1H-pyrazol-4-yl)-3,4-dihydroquinolin-1(2H)-yl)-4,5,6,7-tetrahydro-1H-pyrazolo[4,3-c]pyridin-1-yl)piperidin-1-yl)hexyl)oxy)-2-(2,6-dioxopiperidin-3-yl)isoindoline-1,3-dione] | 14.8 nM | > 80% | – | – | – |
| CNC(=O)N1CCc2c(c(N3CCCc4cc(-c5cnn(C)c5)c(C(F)F)cc43)nn2C2CCN(C(=O)CCCCCCNc3cccc4c3n(C)c(=O)n4C3CCC(=O)NC3=O)CC2)C1 (stereo not shown) [P-114, 3-(7-(Difluoromethyl)-6-(1-methyl-1H-pyrazol-4-yl)-3,4-dihydroquinolin-1(2H)-yl)-1-(1-(7-((1-(2,6-dioxopiperidin-3-yl)-3-methyl-2-oxo-2,3-dihydro-1H-benzo[d]imidazol-4-yl)amino)heptanoyl)piperidin-4-yl)-N-methyl-1,4,6,7-tetrahydro-5H-pyrazolo[4,3-c]pyridine-5-carboxamide] | 877 nM | 20 to 50% | – | – | – |
| CNC(=O)N1CCc2c(c(N3CCCc4cc(-c5cnn(C)c5)c(C(F)F)cc43)nn2C2CCN(C(=O)CCOCCOCCOCCOCCNc3ccc4c(c3)C(=O)N(C3CCC(=O)NC3=O)C4=O)CC2)C1 (stereo not shown) [P-011, 3-(7-(Difluoromethyl)-6-(1-methyl-1H-pyrazol-4-yl)-3,4-dihydroquinolin-1(2H)-yl)-1-(1-(1-((2-(2,6-dioxopiperidin-3-yl)-1,3-dioxoisoindolin-5-yl)amino)-3,6,9,12-tetraoxapentadecan-15-oyl)piperidin-4-yl)-N-methyl-1,4,6,7-tetrahydro-5H-pyrazolo[4,3-c]pyridine-5-carboxamide] | – | – | 163 nM | 20 to 50% | – |
| CC(=O)N1CCc2c(c(N3CCCc4cc(-c5cnn(C)c5)c(C(F)F)cc43)nn2C2CCN(C(=O)CCCCCCCCCn3c(=O)n(C4CCC(=O)NC4=O)c4ccccc43)CC2)C1 (stereo not shown) [P-164, 3-(3-(10-(4-(5-acetyl-3-(7-(difluoromethyl)-6-(1-methyl-1H-pyrazol-4-yl)-3,4-dihydroquinolin-1(2H)-yl)-4,5,6,7-tetrahydro-1H-pyrazolo[4,3-c]pyridin-1-yl)piperidin-1-yl)-10-oxodecyl)-2-oxo-2,3-dihydro-1H-benzo[d]imidazol-1-yl)piperidine-2,6-dione] | 1 nM | > 80% | – | – | – |
| CNC(=O)N1CCc2c(c(N3CCCc4cc(-c5cnn(CC(=O)NCCOCCOCCNc6ccc7c(c6)C(=O)N(C6CCC(=O)NC6=O)C7=O)c5)c(C(F)F)cc43)nn2C2CCOCC2)C1 (stereo not shown) [P-029] | – | – | 578 nM | < 20% | – |
| CNC(=O)N1CCc2c(c(N3CCCc4cc(-c5cnn(C)c5)c(C(F)F)cc43)nn2C2CCN(C(=O)CCCCCC(=O)N[C@H](C(=O)N3C[C@H](O)C[C@H]3C(=O)NCc3ccc(-c4scnc4C)cc3)C(C)(C)C)CC2)C1 [P-059, 3-(7-(Difluoromethyl)-6-(1-methyl-1H-pyrazol-4-yl)-3,4-dihydroquinolin-1(2H)-yl)-1-(1-(7-(((S)-1-((2S,4R)-4-hydroxy-2-((4-(4-methylthiazol-5-yl)benzyl)carbamoyl)pyrrolidin-1-yl)-3,3-dimethyl-1-oxobutan-2-yl)amino)-7-oxoheptanoyl)piperidin-4-yl)-N-methyl-1,4,6,7-tetrahydro-5H-pyrazolo[4,3-c]pyridine-5-carboxamide] | 60.6 nM | < 20% | – | – | – |
| CNC(=O)N1CCc2c(c(N3CCCc4cc(-c5cnn(C)c5)c(C(F)F)cc43)nn2C2CCN(C(=O)CCCCCCc3cccc4c3C(=O)N(C3CCC(=O)NC3=O)C4=O)CC2)C1 (stereo not shown) [P-085, 3-(7-(difluoromethyl)-6-(1-methyl-1H-pyrazol-4-yl)-3,4-dihydroquinolin-1(2H)-yl)-1-(1-(7-(2-(2,6-dioxopiperidin-3-yl)-1,3-dioxoisoindolin-4-yl)heptanoyl)piperidin-4-yl)-N-methyl-1,4,6,7-tetrahydro-5H-pyrazolo[4,3-c]pyridine-5-carboxamide] | 3.8 nM | > 80% | – | – | – |
| CC(=O)N1CCc2c(c(N3CCCc4cc(-c5cnn(C)c5)c(C(F)F)cc43)nn2C2CCN(C(=O)CCCCCn3c(=O)n(C4CCC(=O)NC4=O)c4ccccc43)CC2)C1 (stereo not shown) [P-107, 3-(3-(6-(4-(5-Acetyl-3-(7-(difluoromethyl)-6-(1-methyl-1H-pyrazol-4-yl)-3,4-dihydroquinolin-1(2H)-yl)-4,5,6,7-tetrahydro-1H-pyrazolo[4,3-c]pyridin-1-yl)piperidin-1-yl)-6-oxohexyl)-2-oxo-2,3-dihydro-1H-benzo[d]imidazol-1-yl)piperidine-2,6-dione] | 20.4 nM | – | – | – | 50 to 80% |
